Columns and labels:
[1] = biological target: KCNQ1/NE1 (Homo sapiens, UniProt P51787); test: Two-electrode voltage-clamp in Xenopus laevis oocytes, KCNQ1/KCNE1; format: cell-based; parameters: dose or concentration left out as unconfirmed; conditions: oocyte expression
Description: Female Xenopus laevis extracted ovaries were purchased from eNASCO (LM00935MX, eNASCO Fort Atkinson, Wis.). […] Approximately 50 nl cRNA (about 50 ng) was injected for KCNQ1, KCNQ4, and KCNQ5 using a Nanoject microinjector (Drummond, Broomall, Pa., USA). For co-expression of KCNQ2 and KCNQ3 and of KCNQ1 and KCNE1, cRNA's were mixed in equal molar ratios before injection of approximately 50 nl. […] Oocytes were kept in Culture Barth solution at 19° C. which was changed daily and currents were recorded after 3 to 5 days.
KCNQ channel currents expressed in Xenopus laevis oocytes were recorded using a two-electrode voltage-clamp. […]
Data were acquired by means of an Axograph X software (Axograph Scientific, Sydney, AU) and analyzed using Graph Pad Prism (GraphPad Software Inc., CA, USA). […]
After steady channel current was recorded in the presence of Retigabine at its EC75, recorded oocyte was washed with the recording solution until its steady current returned to its normal level without the presence of any drugs. Then the channel steady current was recorded in the presence of the test compound at its EC75. The percent efficacy was then expressed as: % efficacy=(C2/C 1)×100 where C2 is the recorded steady current in the presence of follow-on compound at its EC75 and C1 is the recorded steady current in the presence of Retigabine at its EC75.

[2] = system: mouse maximal electroshock seizure (MES) model; test: Maximal electroshock seizure (MES) test, mouse; format: in vivo; conditions: Mus musculus, po; murine MES model, dosed orally 2 hours prior to testing; read-out: ED50, inhibition of seizures
Description: The MES testing protocol is based on procedures established at the National Institute of Neurological Disorders and Stroke in conjunction with the Anticonvulsant Screening Program (ASP) at the University of Utah (White, H. S., Woodhead, J. H., Wilcox, K. S., Stables, J. P., Kupferberg, H. J and Wolf, H. H. 2002. “General Principles: Discovery and Preclinical Development of Antiepileptic Drugs,” in Antiepileptic Drugs, 5th Edition, R. H. Levy, ed.; R. H. Mattson, B. S. Meldrum, and E. Perucca. Philadelphia, Lippincott Williams & Wilkins.), The goal of the test rapid identification and characterization of the in vivo anticonvulsant activity of any compounds that have been shown active in PC-12 cellular based Rb^+ efflux assay.
Adult male CF-I albino mice (18-25 g, Charles River Laboratories) are exclusively used for in-house MES screen of compounds. Male Sprague-Dawley albino rats (100-125 g, Charles River Laboratories) are also used to test anticonvulsant compounds. Variability of test outcomes is reduced by using animals of the same sex, age, and weight. Animals are permitted to rest and recover from transit for at least 48 hr prior to experimentation. Animals are used for AED testing only once. In some instances, the animals may be anesthetized prior to blood collection and/or whole brain extraction for pharmacokinetic assay. All animals are maintained and handled as outlined in standard animal care guidelines.
In the experiments, testing compounds are prepared as suspensions in 0.5% methyl cellulose (Sigma, Cat #M0512, Viscosity 4000 cP at 20° C.) in water, regardless of solubility. Dry powder compounds are initially ground with a glass rod in a test tube in several drops of methyl cellulose to create a paste and to break down any large chunks. After several minutes of grinding, the volume of the suspension is increased to the final concentration desired. The suspension is then sonicated using a Branson sonicator model 3510 in a water bath at room temperature for 15 minutes. Compound suspensions are further vortexed prior to animal dosing. In some of the cases, DMSO is used to initially solubilize compounds in small volumes and then this solution is added to the 0.5% methyl cellulose solution, in order to create more even and less aggregated compound suspensions. The final concentration of DMSO is 3.75%, an amount with no apparent toxicity or neuroprotective effects in our usual rotarod and MES tests. Methyl cellulose/DMSO compound suspensions are identically prepared for intraperitoneally (i.p.) to mice or orally (p.o.) to rat dosing.
Initially the animals are weighed with an electronic scale and then marked. Data recording sheets are generated for each compound assessment. Mice or rats are dosed with the compound suspension at 0.01 mL/g of body weight. The typical injection volume range is between 180-250 μl for mice. […] Rats are p.o. dosed using a flexible feeding tube, typically starting at a compound dose of 5 mg/kg.
A Rodent Electroconvulsive Stimulator (Model 200, Hamit-Darvin-Freesh, Snow Canyon Clinic, Ivins, Utah) is used for MES testing. A 60-Hz alternating current (50 mA for mice; 150 mA for rats) is delivered for 0.2 seconds through corneal electrodes to the mice. A drop of 0.5% tetracaine (Sigma, Cat. #T-7508) solution is placed on the eye prior to current delivery. The electrodes are subsequently placed gently onto the eyes of the animal and the electrical shock is initiated by triggering through a foot-pedal activator. The animals are restrained by hand and gently released as the shock is delivered and the seizure commences. Animals are monitored for hind limb tonic extension as the end point for this test. Current delivery is recorded as a measure of overall seizure-induction potential. Electrical current delivery can vary from approximately 30-55 mA (mice) or 90-160 mA (rats) depending on impedance in the animal and quality of the current delivery (ie. correct placement of the electrodes on the cornea). […]

[3] = Rotarod test (motor impairment, acute toxicity); conditions: CF-1, in vivo, oral; behavioral rotarod model, mouse
Description: Prior to MES testing, compound dosed mice are scrutinized for abnormal neurologic status as defined by motor impairment on a slowly turning (6 rpm) rotarod apparatus (Model 755, Series 8, IITC Life Sciences, Woodland Hills, Calif.). […] These measurements are done at the same time points as the MES assay. Untreated normal mice are able to maintain balance on the rotarod for at least one minute without falling. Median toxicity of a compound (TD50, the dose of a drug that results in motor impairment in 50% of animals) is determined.

KCNQ1/NE1, sequence (P51787 whole entry): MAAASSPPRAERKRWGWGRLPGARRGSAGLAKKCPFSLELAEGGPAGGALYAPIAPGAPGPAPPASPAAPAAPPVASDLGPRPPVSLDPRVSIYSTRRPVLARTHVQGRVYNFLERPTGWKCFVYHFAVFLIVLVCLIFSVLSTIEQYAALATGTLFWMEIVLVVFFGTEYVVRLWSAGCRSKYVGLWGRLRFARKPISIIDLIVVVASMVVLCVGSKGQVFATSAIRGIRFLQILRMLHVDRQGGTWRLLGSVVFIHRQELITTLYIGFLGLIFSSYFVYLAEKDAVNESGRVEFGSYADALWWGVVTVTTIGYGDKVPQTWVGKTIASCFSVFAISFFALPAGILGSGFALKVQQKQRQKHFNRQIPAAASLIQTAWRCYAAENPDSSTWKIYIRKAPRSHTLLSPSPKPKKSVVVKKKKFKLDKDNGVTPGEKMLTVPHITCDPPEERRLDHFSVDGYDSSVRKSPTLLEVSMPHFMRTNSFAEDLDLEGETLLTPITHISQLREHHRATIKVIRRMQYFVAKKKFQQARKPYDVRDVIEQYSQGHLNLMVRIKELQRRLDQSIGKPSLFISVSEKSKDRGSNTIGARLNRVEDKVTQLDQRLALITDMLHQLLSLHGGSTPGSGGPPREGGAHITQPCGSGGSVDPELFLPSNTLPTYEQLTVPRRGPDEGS

SMILES: Cc1cc(N2CCc3cc(F)ccc3C2)cc(C)c1NC(=O)CC(C)(C)C [compound A, N-[4-(6-fluoro-3,4-dihydro-1H-isoquinolin-2-yl)-2,6-dimethylphenyl]-3,3-dimethyl butanamide]
- KCNQ1/NE1 Block (%) [1]: 3.5%
- ED50 [2]: 2.2 mg/kg
- TD50 at 2 h [3]: 12.6 mg/kg
